Reference: patent publication US20250195521A1 (Revolution Medicines, Inc., priority 2020, published 2025)
pEC50, pIC50: −log10 of the molar value.

Experiments:
KRAS G13D = KRAS G13D (Homo sapiens (Human), UniProt P01116+P62937, G13D); experiment: Ras-Raf disruption/FRET/MOA assay (BRAF RBD, Cyclophilin A); assay type: biochemical; details: read-out: KRAS G13D FRET data IC50
Procedure: (§1) Compound is present in plate wells as a 10-point 3-fold dilution series starting at a final concentration of 30 μM. After incubation at 25° C. for 3 hours, a mixture of Anti-His Eu—W1024 and anti-GST allophycocyanin is then added to assay sample wells at final concentrations of 10 nM and 50 nM, respectively, and the reaction incubated for an additional 1.5 hours. […] Compounds that facilitate disruption of a Ras: RAF complex are identified as those eliciting a decrease in the TR-FRET ratio relative to DMSO control wells.
(§2) Disruption of B-Raf Ras-Binding Domain (BRAF^RBD) Interaction with K-Ras by Compounds of the Invention (Also Called a FRET Assay or an MOA Assay)
(§3) Note—The following protocol describes a procedure for monitoring disruption of K-Ras G12C (GMP-PNP) binding to BRAF^RBD by a compound of the invention. This protocol may also be executed substituting other Ras proteins or nucleotides.
(§4) The purpose of this biochemical assay was to measure the ability of test compounds to facilitate ternary complex formation between a nucleotide-loaded K-Ras isoform and Cyclophilin A; the resulting ternary complex disrupts binding to a BRAF^RBD construct, inhibiting K-Ras signaling through a RAF effector. Data is reported as IC50 values.
(§5) In assay buffer containing 25 mM HEPES pH 7.3, 0.002% Tween20, 0.1% BSA, 100 mM NaCl and 5 mM MgCl2, tagless Cyclophilin A, His6-K-Ras-GMPPNP, and GST-BRAF^RBD were combined in a 384-well assay plate at final concentrations of 25 μM, 12.5 nM and 50 nM, respectively. Compound was present in plate wells as a 10-point 3-fold dilution series starting at a final concentration of 30 μM. After incubation at 25° C. for 3 hours, a mixture of Anti-His Eu—W1024 and anti-GST allophycocyanin was then added to assay sample wells at final concentrations of 10 nM and 50 nM, respectively, and the reaction incubated for an additional 1.5 hours. […] Compounds that facilitate disruption of a K-Ras: RAF complex were identified as those eliciting a decrease in the TR-FRET ratio relative to DMSO control wells.

NRAS G12C = NRAS G12C (Homo sapiens (Human), UniProt P01111+P62937, G12C); experiment: as above; assay type: biochemical; details: read-out: NRAS G12C FRET data IC50
Procedure: as §1, §2, §3, §4, §5

KRAS G12V = KRAS G12V (Homo sapiens (Human), UniProt P01116+P62937, G12V); experiment: as above; assay type: biochemical; details: read-out: KRAS G12V FRET IC50
Procedure: as §1, §2, §3, §4, §5

KRAS G12C = KRAS G12C (Homo sapiens (Human), UniProt P01116+P62937, G12C); experiment: as above; assay type: biochemical; details: read-out: KRAS G12C FRET IC50
Procedure: as §1, §2, §3, §4, §5

KRAS G13C = KRAS G13C (Homo sapiens (Human), UniProt P01116+P62937, G13C); experiment: as above; assay type: biochemical; details: read-out: KRAS G13C FRET IC50
Procedure: as §1, §2, §3, §4, §5

KRAS WT = KRAS WT (Homo sapiens (Human), UniProt P01116+P62937); experiment: as above; assay type: biochemical; details: read-out: KRAS WT FRET data IC50
Procedure: as §1, §2, §3, §4, §5

KRAS G12D = KRAS G12D (Homo sapiens (Human), UniProt P01116+P62937, G12D); experiment: as above; assay type: biochemical; details: read-out: KRAS G12D FRET IC50
Procedure: as §1, §2, §3, §4, §5

KRAS G12S = KRAS G12S (Homo sapiens (Human), UniProt P01116+P62937, G12S); experiment: as above; assay type: biochemical; details: read-out: KRAS G12S FRET IC50
Procedure: as §1, §2, §3, §4, §5

[1] = system: Capan-1 cells (K-Ras G12V); experiment: CellTiter-Glo cell viability, Capan-1; assay type: cell-based, human; details: Homo sapiens, CAPAN-1, 120 h, K-Ras G12V, 5-day treatment; read-out: Capan-1 Cell Viability IC50
Method in brief: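 Viability read by luminescence on day 5 after direct compound addition to cells, following ~30 min room-temperature equilibration. Values expressed as percent of mean DMSO signal, curves fitted with a four-parameter logistic model.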

[2] = system: K-Ras G12C (NCI-H358 cells); experiment: Potency assay: pERK in NCI-H358 cells; assay type: cell-based, human; details: Homo sapiens; NCI-H358 cells, 4 hours; read-out: pERK EC50 (H358 KRAS G12C)
Method in brief: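 Cells plated the day before were exposed for 4 h at 37° C, 5% CO2 to a 10-point, 3-fold DMSO dilution series (10 mM top stock), in duplicate. Phospho-ERK was read by AlphaLISA SureFire Ultra or by In-Cell Western with DRAQ5 DNA stain, and IC50 came from a 4-parameter sigmoidal fit.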

Chain of KRAS G13C (P01116 other isoform, or with tags, fused parts or gaps G13C): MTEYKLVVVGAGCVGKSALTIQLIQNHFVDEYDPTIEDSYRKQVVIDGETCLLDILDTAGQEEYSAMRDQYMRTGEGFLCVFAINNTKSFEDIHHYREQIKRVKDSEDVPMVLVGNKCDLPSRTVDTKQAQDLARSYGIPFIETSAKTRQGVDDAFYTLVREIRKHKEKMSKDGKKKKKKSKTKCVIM
Chain of KRAS G13C (P62937 whole entry): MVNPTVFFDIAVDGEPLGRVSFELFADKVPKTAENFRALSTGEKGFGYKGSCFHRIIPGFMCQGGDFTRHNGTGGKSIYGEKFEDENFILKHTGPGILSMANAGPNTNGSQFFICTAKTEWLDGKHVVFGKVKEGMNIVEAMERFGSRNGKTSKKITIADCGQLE
Chain of KRAS G12C (P01116-2 other isoform, or with tags, fused parts or gaps G12C): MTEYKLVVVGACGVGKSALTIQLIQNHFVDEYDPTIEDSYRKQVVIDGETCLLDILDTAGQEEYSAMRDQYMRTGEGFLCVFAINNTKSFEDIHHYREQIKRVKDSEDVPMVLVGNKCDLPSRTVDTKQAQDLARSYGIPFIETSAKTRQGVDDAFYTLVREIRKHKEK
Chain of KRAS G12C (P62937 whole entry): as the sequence (P62937 whole entry) above
Chain of KRAS WT (P01116 other isoform, or with tags, fused parts or gaps): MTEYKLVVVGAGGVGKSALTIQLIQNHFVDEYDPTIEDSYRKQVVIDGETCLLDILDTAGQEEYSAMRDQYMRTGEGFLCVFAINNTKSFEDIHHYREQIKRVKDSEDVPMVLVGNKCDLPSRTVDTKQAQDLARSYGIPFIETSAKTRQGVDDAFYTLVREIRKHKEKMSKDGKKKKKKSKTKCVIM
Chain of KRAS WT (P62937 whole entry): as the sequence (P62937 whole entry) above
Chain of KRAS G13D (P01116 other isoform, or with tags, fused parts or gaps G13D): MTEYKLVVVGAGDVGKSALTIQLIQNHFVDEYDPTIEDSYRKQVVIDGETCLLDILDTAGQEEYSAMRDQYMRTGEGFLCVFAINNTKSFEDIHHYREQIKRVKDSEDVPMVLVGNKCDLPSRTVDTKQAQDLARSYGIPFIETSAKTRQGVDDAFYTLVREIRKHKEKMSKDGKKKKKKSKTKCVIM
Chain of KRAS G13D (P62937 whole entry): as the sequence (P62937 whole entry) above
Chain of NRAS G12C (P01111 whole entry G12C): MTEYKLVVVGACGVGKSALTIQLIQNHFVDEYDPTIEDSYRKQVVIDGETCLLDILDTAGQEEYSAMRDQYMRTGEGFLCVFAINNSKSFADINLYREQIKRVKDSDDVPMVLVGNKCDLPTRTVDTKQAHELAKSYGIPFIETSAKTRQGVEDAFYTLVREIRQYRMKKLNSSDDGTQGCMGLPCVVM
Chain of NRAS G12C (P62937 whole entry): as the sequence (P62937 whole entry) above
Chain of KRAS G12V (P01116 other isoform, or with tags, fused parts or gaps G12V): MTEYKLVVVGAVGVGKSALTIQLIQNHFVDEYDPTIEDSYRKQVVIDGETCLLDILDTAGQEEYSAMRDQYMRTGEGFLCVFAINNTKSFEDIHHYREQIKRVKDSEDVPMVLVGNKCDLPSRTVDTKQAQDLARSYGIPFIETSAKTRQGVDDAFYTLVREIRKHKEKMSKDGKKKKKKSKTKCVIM
Chain of KRAS G12V (P62937 whole entry): as the sequence (P62937 whole entry) above
Chain of KRAS G12S (P01116 other isoform, or with tags, fused parts or gaps G12S): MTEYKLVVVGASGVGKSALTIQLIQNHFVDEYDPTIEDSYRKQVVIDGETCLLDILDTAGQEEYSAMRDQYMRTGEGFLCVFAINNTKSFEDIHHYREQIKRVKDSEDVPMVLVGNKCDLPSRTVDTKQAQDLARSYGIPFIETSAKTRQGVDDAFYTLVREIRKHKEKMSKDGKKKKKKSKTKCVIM
Chain of KRAS G12S (P62937 whole entry): as the sequence (P62937 whole entry) above
Chain of KRAS G12D (P01116 other isoform, or with tags, fused parts or gaps G12D): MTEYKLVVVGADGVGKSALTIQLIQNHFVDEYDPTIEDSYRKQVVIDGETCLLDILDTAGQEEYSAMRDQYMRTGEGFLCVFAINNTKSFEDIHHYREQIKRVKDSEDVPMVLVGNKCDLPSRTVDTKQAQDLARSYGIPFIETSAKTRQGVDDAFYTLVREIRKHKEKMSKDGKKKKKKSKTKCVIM
Chain of KRAS G12D (P62937 whole entry): as the sequence (P62937 whole entry) above

| Compound | pIC50 (KRAS G13D) | pIC50 (NRAS G12C) | pIC50 (KRAS G12V) | pIC50 (KRAS G12C) | pIC50 (KRAS G13C) | pIC50 (KRAS WT) | pIC50 (KRAS G12D) | pIC50 (KRAS G12S) | pIC50 [1] | pEC50 [2] |
| --- | --- | --- | --- | --- | --- | --- | --- | --- | --- | --- |
| CCn1c(-c2cnccc2COC)c2c3cc(ccc31)-c1cc(O)cc(c1)C[C@H](NC(=O)[C@H](C(C)C)N(C)c1nccs1)C(=O)N1CCC[C@H](N1)C(=O)OCC(C)(C)C2 [Compound A86] | 5.00 to 6.00 | 5.00 to 6.00 | 5.00 to 6.00 | 6.00 to 7.00 | 6.00 to 7.00 | 5.00 to 6.00 | < 5.00 | 5.00 to 6.00 | < 5.00 | > 5.30 |
| CCn1c(-c2cnccc2COC)c2c3cc(ccc31)-c1cc(O)cc(c1)C[C@H](NC(=O)[C@H](C(C)C)N(C)C(=O)C1CN(C)C1)C(=O)N1CCC[C@H](N1)C(=O)OCC(C)(C)C2 [Compound A88] | 7.00 to 8.00 | 6.00 to 7.00 | 5.00 to 6.00 | 6.00 to 7.00 | 7.00 to 8.00 | 6.00 to 7.00 | 6.00 to 7.00 | 6.00 to 7.00 | < 5.00 | > 5.30 |
| CCn1c(-c2cccnc2[C@H](C)OC)c2c3cc(ccc31)-c1cccc(c1)C[C@H](NC(=O)[C@H](C(C)C)N(C)C(=O)[C@H]1CCN(C)C1)C(=O)N1CCC[C@H](N1)C(=O)OCC(C)(C)C2 [Compound A107] | 5.00 to 6.00 | 5.00 to 6.00 | < 5.00 | 5.00 to 6.00 | 6.00 to 7.00 | 5.00 to 6.00 | 5.00 to 6.00 | 5.00 to 6.00 | 5.00 to 6.00 | > 5.30 |
| CCn1c(-c2cccnc2[C@H](C)OC)c2c3cc(ccc31)-c1cc(O)cc(c1)C[C@H](NC(=O)[C@@H]1[C@H](C)CCN1C(C)=O)C(=O)N1CCC[C@H](N1)C(=O)OCC(C)(C)C2 [Compound A144] | 5.00 to 6.00 | 5.00 to 6.00 | 5.00 to 6.00 | 6.00 to 7.00 | 6.00 to 7.00 | 6.00 to 7.00 | 5.00 to 6.00 | 5.00 to 6.00 | 5.00 to 6.00 | > 5.30 |
| CCn1c(-c2cccnc2[C@H](C)OC)c2c3cc(ccc31)-c1cc(O)cc(c1)C[C@H](NC(=O)[C@H](C(C)C)N(C)C(=O)[C@H]1CC1(C)C)C(=O)N1CCC[C@H](N1)C(=O)OCC(C)(C)C2 [Compound A158] | 6.00 to 7.00 | 6.00 to 7.00 | 6.00 to 7.00 | 6.00 to 7.00 | 6.00 to 7.00 | 6.00 to 7.00 | 6.00 to 7.00 | 6.00 to 7.00 | 5.00 to 6.00 | > 5.30 |
| CCn1c(-c2cccnc2[C@H](C)OC)c2c3cc(ccc31)-c1cc(O)cc(c1)C[C@H](NC(=O)[C@H]1C[C@@H]1C)C(=O)N1CCC[C@H](N1)C(=O)OCC(C)(C)C2 [Compound A182] | 5.00 to 6.00 | 5.00 to 6.00 | 5.00 to 6.00 | 6.00 to 7.00 | 6.00 to 7.00 | 5.00 to 6.00 | < 5.00 | 5.00 to 6.00 | 5.00 to 6.00 | > 5.30 |
| CCn1c(-c2cccnc2[C@H](C)OC)c2c3cc(ccc31)-c1csc(n1)C[C@H](NC(=O)[C@H](C(C)C)N(C)C(=O)N1[C@H](C)COC[C@H]1C)C(=O)N1CCC[C@H](N1)C(=O)OCC(C)(C)C2 [Compound A275] | 7.00 to 8.00 | 7.00 to 8.00 | 7.00 to 8.00 | 7.00 to 8.00 | 7.00 to 8.00 | 7.00 to 8.00 | 6.00 to 7.00 | 7.00 to 8.00 | 6.00 to 7.00 | > 5.30 |
| CCn1c(-c2cccnc2[C@H](C)OC)c2c3cc(ccc31)-c1csc(n1)C[C@H](NC(=O)[C@H](C(C)C)N(C)C(=O)N1CCN3CCOCC3C1)C(=O)N1CCC[C@H](N1)C(=O)OCC(C)(C)C2 (stereo partly shown) [Compound A296] | 5.00 to 6.00 | 6.00 to 7.00 | 6.00 to 7.00 | 6.00 to 7.00 | 6.00 to 7.00 | 6.00 to 7.00 | 5.00 to 6.00 | 6.00 to 7.00 | 7.00 to 8.00 | > 5.30 |
| CCn1c(-c2cccnc2[C@H](C)OC)c2c3cc(ccc31)-c1cc(O)cc(c1)C[C@H](NC(=O)[C@H](C(C)C)N(C)C(=O)[C@@H]1CCN(C(=O)OC)C1)C(=O)N1CCC[C@H](N1)C(=O)OCC(C)(C)C2 [Compound A365] | 7.00 to 8.00 | 7.00 to 8.00 | 7.00 to 8.00 | 7.00 to 8.00 | 7.00 to 8.00 | 7.00 to 8.00 | 7.00 to 8.00 | 7.00 to 8.00 | 7.00 to 8.00 | > 5.30 |
| CCn1c(-c2cccnc2[C@H](C)OC)c2c3cc(ccc31)-c1cc(O)cc(c1)C[C@H](NC(=O)[C@H](C(C)C)N(C)C(=O)[C@H]1CCN(C(=O)[C@@H]3CCCN3)C1)C(=O)N1CCC[C@H](N1)C(=O)OCC(C)(C)C2 [Compound A370] | 7.00 to 8.00 | 7.00 to 8.00 | 7.00 to 8.00 | 7.00 to 8.00 | 7.00 to 8.00 | 7.00 to 8.00 | 7.00 to 8.00 | 7.00 to 8.00 | 5.00 to 6.00 | > 5.30 |
| CCn1c(-c2cccnc2[C@H](C)OC)c2c3cc(ccc31)-c1cc(O)cc(c1)C[C@H](NC(=O)[C@H](C(C)C)N(C)C(=O)[C@H]1CCN(C(=O)[C@H]3CCCN3C)C1)C(=O)N1CCC[C@H](N1)C(=O)OCC(C)(C)C2 [Compound A371] | 7.00 to 8.00 | 7.00 to 8.00 | 7.00 to 8.00 | 7.00 to 8.00 | 7.00 to 8.00 | 7.00 to 8.00 | 7.00 to 8.00 | 7.00 to 8.00 | 5.00 to 6.00 | > 5.30 |
| CCn1c(-c2cccnc2[C@H](C)OC)c2c3cc(ccc31)-c1cc(O)cc(c1)C[C@H](NC(=O)[C@H](C(C)C)N(C)C(=O)[C@H]1CCN(C(=O)[C@]3(C)CCCN3)C1)C(=O)N1CCC[C@H](N1)C(=O)OCC(C)(C)C2 [Compound A380] | 7.00 to 8.00 | 7.00 to 8.00 | 7.00 to 8.00 | 7.00 to 8.00 | 7.00 to 8.00 | 7.00 to 8.00 | 7.00 to 8.00 | 7.00 to 8.00 | 5.00 to 6.00 | > 5.30 |
| CCn1c(-c2cccnc2[C@H](C)OC)c2c3cc(ccc31)-c1cc(O)cc(c1)C[C@H](NC(=O)[C@H](C(C)C)N(C)C(=O)[C@H]1CCCC[C@@H]1N)C(=O)N1CCC[C@H](N1)C(=O)OCC(C)(C)C2 [Compound A394] | 6.00 to 7.00 | 6.00 to 7.00 | 6.00 to 7.00 | 6.00 to 7.00 | 7.00 to 8.00 | 6.00 to 7.00 | 6.00 to 7.00 | 6.00 to 7.00 | 5.00 to 6.00 | > 5.30 |
| CCn1c(-c2cccnc2[C@H](C)OC)c2c3cc(ccc31)-c1cc(O)cc(c1)C[C@H](NC(=O)C(C)=C(C)C)C(=O)N1CCC[C@H](N1)C(=O)OCC(C)(C)C2 [Compound A398] | 5.00 to 6.00 | 5.00 to 6.00 | 5.00 to 6.00 | 5.00 to 6.00 | 6.00 to 7.00 | 5.00 to 6.00 | < 5.00 | 5.00 to 6.00 | 5.00 to 6.00 | – |
